Measurements published in US20210387983A1, “CRYSTALLINE ALK5 INHIBITORS AND USES THEREOF” (THERAVANCE BIOPHARMA R&D IP, LLC, priority 2020, published 2021).

Key:
[1] = test system: TGF-β-stimulated SMAD3 phosphorylation in BEAS-2B cells; assay: Cellular ALK5 potency assay, inhibition of TGF-β stimulated pSMAD3 formation in BEAS-2B cells; assay type: cell-based; details: Homo sapiens, 1 hour compound incubation, TGF-β 10 ng/mL for 30 minutes, read-out: pIC50 value, inhibition of TGF-β-stimulated pSMAD3 formation (converted)
Method: The potency of the compound of Formula I for inhibition of TGF-β-stimulated SMAD3 phosphorylation was measured in BEAS-2B cells, a human lung epithelial cell line. TGF-β signals through activin receptor-like kinase 5 (ALK5) immediately prior to SMAD3 phosphorylation.
BEAS-2B cells were grown using 50% DMEM (Life Technologies) and 50% F-12 (Life Technologies) media, supplemented with 10% Fetal Bovine Serum (ATCC), 25 mM HEPES (Life Technologies), and 1× Pen-Strep (Life Technologies). Cells were cultured in a humidified incubator set at 37° C., 5% CO2, and trypsonized using 0.25% Trypsin with 0.5% polyvinylpyrrolidone (PVP).
For the assay, BEAS-2B cells were seeded at 7,500 cells/well (25 μL/well) in a 384-well plate and cultured overnight. Before dosing, growth media was aspirated and the wells were rinsed with HBSS Buffer (HBSS with Calcium and Magnesium, Life Technologies) supplemented with 25 mM HEPES (Life Technologies) and 1% Bovine Serum Albumin (Roche). […] AlphaLISA Acceptor and Detector beads (PerkinElmer) were added 2 hours apart, then incubated overnight to be read the next day. The potency of the compound was determined through analysis of dose-dependent quantified changes in pSMAD3 signal from baseline (non-compound treated TGF-β stimulated cells). Data are expressed as pIC50 (negative decadic logarithm IC50) values.

[2] = Lung PK/PD: PK study after oral aspiration; assay type: in vivo; details: C57bl/6n, mouse, lung / plasma, mice, 3% glycerol in PBS pH=4, read-out: (lung AUC0-4):(plasma AUC0-4) ratio
Method: C57bl/6n mice were acclimated for at least 3 days before use. On the day of the experiment, animals were grouped into sample sizes of 5 (n=10 for the TGF-β stimulated group). The compound of Formula I (formulated in 3% glycerol in PBS; pH=4) was pre-treated via oral aspiration (OA; animals are forced to aspirate solution into the lungs by covering their nose). All oral aspirations were performed using a 50 μL dosing volume and accompanied by the appropriate vehicle control groups. Following compound OA treatment, the animals were returned to their home cages and monitored. Compound pre-treatment occurred 4 hours prior to harvest for screening and dose-response studies; duration studies had variable compound pre-treatment times. One hour prior to harvest, animals were challenged via oral aspiration a second time with PBS vehicle or recombinant human TGF-β1 protein (0.01 μg per animal dissolved in 1 part 4 mM HCl and 2 parts 3% glycerol in PBS). Five minutes prior to harvest, animals were deeply anesthetized under isoflurane and euthanized via cervical dislocation. […]
Left lung lobes were harvested immediately after BALF collection. […] Following collection of the supernatant, a total protein quantification assay (Bradford) was performed to normalize the concentrations of all samples. […]
Plasma, lung and macrophage drug concentrations were quantified. […]

SMAD3 phosphorylation = assay: Cardiac PK/PD: systemic target engagement, pSMAD3/tSMAD3 in heart by Meso-Scale Discovery; assay type: in vivo, C57bl/6n mice; details: mice, oral aspiration 2 or 4 hours prior to harvest; TGF-β1 i.v. challenge; heart samples
Method: C57bl/6n mice were acclimated for at least 3 days before use. On the day of the experiment, animals were grouped into sample sizes of 5-10. Test compounds were pre-treated via oral aspiration (OA; animals are forced to aspirate solution into the lungs by covering their nose). All oral aspirations were performed using a 50 μL dosing volume and accompanied by a vehicle control group (3% glycerol in PBS, pH=4). Following compound OA treatment, the animals were returned to their home cages and monitored. Compound pre-treatment occurred either 2 or 4 hours prior to harvest. One hour prior to harvest, animals were challenged via tail-vein intravenous injection with PBS vehicle or recombinant human TGF-β1 protein (1 μg per animal dissolved in 1 part 4 mM HCl and 2 parts 3% glycerol in PBS). Five minutes prior to harvest, animals were deeply anesthetized under isoflurane and euthanized via cervical dislocation. Plasma, left lung lobes and whole hearts were collected during harvest.
Blood plasma was harvested as described above in the Lung PK/PD experiment. Whole hearts were processed in the same manners as left lung lobes in the Lung PK/PD experiment. Left lung lobes were homogenized in 500 μL of water and submitted for BA Analysis.
Heart samples were processed using MSD in the same manner as the left lung lobes above. […] Plasma, lung and heart drug concentrations were quantified.

Structure (SMILES): C[C@@H]1CN(CCNc2cnc3ccc(-c4nc[nH]c4-c4cc(Cl)ccc4F)nc3c2)C[C@H](C)N1 [compound of Formula I, 6-(5-(5-chloro-2-fluorophenyl)-1H-imidazol-4-yl)-N-(2-((3S,5R)-3,5-dimethylpiperazin-1-yl)ethyl)-1,5-naphthyridin-3-amine]
- IC50 [1]: 0.0251 to 0.158 µM
- Kp [2]: > 75
- systemic target engagement, as measured by SMAD3 phosphorylation inhibition (SMAD3 phosphorylation): minimal target engagement systemically
